The values below are quoted from earlier work in US20090023742A1, “THIAZOLONES FOR USE AS PI3 KINASE INHIBITORS” (priority 2006, published 2009).

Usually IC50 stands for the concentration needed to halve the response being measured.

The data set concerns Class I PI3-kinases. The note with it: each of the four Class I PI3-kinases; read-out: IC50 values against each of the various Class I PI3-kinases.

wortmannin: the IC50 was 1 to 10 nM.
